For 15 molecules, Activity, IC50 and inhibition results are on record in ChEMBL document CHEMBL1140974, “Synthesis and antimalarial activity of semicarbazone and thiosemicarbazone derivatives” (Eur J Med Chem, 2008).

The source made the active and inactive calls. No cut-off for these calls is given here.

As usually defined, the IC50 is the concentration that inhibits the measured activity by half. A word on the inhibition: it is the percentage by which the read-out fell short of the control.

Data set [1] concerns PBMC. The data set is described as follows: Antiproliferative activity against PHA-stimulated human PBMC at 20 ug/mL after 72 hrs by MTT assay relative to control. It counts as cell-based.
For data set [2], the system named is Plasmodium falciparum. Nature of the data set: Antimalarial activity against chloroquine-resistant Plasmodium falciparum W2 in human erythrocytes at 20 ug/mL by [3H]hypoxanthine uptake. It counts as functional.
Data set [3] deals with PBMC. The data set is described as follows: Antiproliferative activity against PHA-stimulated human PBMC after 72 hrs by MTT assay. The data set is classed as cell-based. A general note: Tetrazolium dyes change colour on reduction, which living cells bring about.
Data set [4] has as its system Plasmodium falciparum. The data set is described as follows: Antimalarial activity against chloroquine-resistant Plasmodium falciparum W2 in human erythrocytes by [3H]hypoxanthine uptake. It counts as functional, organism-based.
The test system of data set [5] is Plasmodium berghei. The data set is described as follows: Antiplasmodial activity as reduced parasitaemia after 7 days in Plasmodium berghei NK65 infected BALB/c mice (Mus musculus) at 5 mg/kg/day over 4 days. The data set is classed as functional. On the set-up: scale not given: the % may be the effect or the level left.
Data set [6] concerns Plasmodium berghei. The data set is described as follows: Antiplasmodial activity as reduced parasitaemia after 5 days in Plasmodium berghei NK65 infected BALB/c mice (Mus musculus) at 20 mg/kg/day over 4 days. It counts as functional. On the set-up: scale not given: the % may be the effect or the level left.
Data set [7] has as its system Plasmodium berghei. The data set is described as follows: Antiplasmodial activity as reduced parasitaemia after 7 days in Plasmodium berghei NK65 infected BALB/c mice (Mus musculus) at 15 mg/kg/day over 4 days. The data set is classed as functional. The arrangement: scale not given: the % may be the effect or the level left.
Data set [8] has as its system Plasmodium berghei. Nature of the data set: Antiplasmodial activity after 5 days as reduced parasitaemia in Plasmodium berghei NK65 infected BALB/c mice (Mus musculus) at 5 mg/kg/day for 4 days. On the set-up: scale not given: the % may be the effect or the level left. The data set is classed as functional.
Data set [9] relates to Plasmodium berghei. Nature of the data set: Antiplasmodial activity as reduced parasitaemia after 7 days in Plasmodium berghei NK65 infected BALB/c mice (Mus musculus) at 10 mg/kg/day over 4 days. It counts as functional. On the set-up: scale not given: the % may be the effect or the level left.
For data set [10], the system named is Plasmodium berghei. Nature of the data set: Antiplasmodial activity as reduced parasitaemia after 5 days in Plasmodium berghei NK65 infected BALB/c mice (Mus musculus) at 15 mg/kg/day over 4 days. The data set is classed as functional. On the set-up: scale not given: the % may be the effect or the level left.
The test system of data set [11] is Plasmodium berghei. The data set is described as follows: Antiplasmodial activity as reduced parasitaemia after 7 days in Plasmodium berghei NK65 infected BALB/c mice (Mus musculus) at 20 mg/kg/day over 4 days. It counts as functional. The arrangement: scale not given: the % may be the effect or the level left.
Data set [12] concerns Plasmodium berghei. The data set is described as follows: Antiplasmodial activity as reduced parasitaemia after 5 day sin Plasmodium berghei NK65 infected BALB/c mice (Mus musculus) at 10 mg/kg/day over 4 days. The data set is classed as functional. The arrangement: scale not given: the % may be the effect or the level left.

Regarding `CC/C(=N/NC(N)=O)C(C)CC=C(C)C` (stereo not drawn), the Activity in data set [1] was 0%. Besides, the result in data set [2] was inactive.
Turning to `CC/C(=N/NC(N)=S)C(C)CC=C(C)C` (stereo not drawn), the IC50 in data set [3] came out at 31.3 µM; in data set [4] it was 9.2 µM. This molecule also gave an Activity in data set [1] of 60%. For the same molecule, 20 µg/mL produced 99% inhibition in data set [2].
Take `CC1(C)C2CC=C(/C=N/NC(N)=S)C1C2` (stereo not drawn): the Activity in [5] was 8%; in data set [6], 77.5%; in data set [7], 94.5%; in data set [8], 0%; in data set [9] it was 32%; in data set [1] it was 76%. For the same molecule, the Activity in data set [10] was 93%; in data set [11] it was 61%; in data set [12] it was 36%. Further, the IC50 in data set [3] worked out at 73.5 µM; in data set [4], 7.2 µM. In addition, at 20 µg/mL the inhibition in data set [2] was 95%.
In [3], `CCN(CC)CCCC(C)Nc1ccnc2cc(Cl)ccc12` (stereo not drawn) [CHLOROQUINE] had an IC50 of 5.1 µM.
For `COc1cc(/C=N/NC(N)=O)cc(OC)c1OC`, the Activity in [1] is 107%. The result in data set [2] was inactive.
In data set [1], `CCCC/C(CC)=N\NC(N)=O` yielded an Activity of 89%. The result in data set [2] was inactive.
For `COc1ccc(/C=N/NC(N)=S)cc1` the same measures were 90% and “inactive”.
`COc1ccc(/C=N/NC(N)=O)cc1`: in data set [1], the Activity is recorded as 141%. Moreover, the inhibition at 20 µg/mL in [2] came to 38%.
As to `CC1(C)C2CC=C(/C=N/NC(N)=O)C1C2` (stereo not drawn), in data set [1], the Activity turned out to be 110%. In addition, the result in data set [2] was inactive.
Consider `COc1cc(/C=N/NC(N)=O)ccc1O`, for which the Activity in [1] amounted to 116%. Besides, in data set [2], the result was inactive.
For `CC(C)=CCC/C(C)=N\NC(N)=O` the same measures were 107% and “inactive”.
In the case of `CC(C)=CCC/C(C)=N\NC(N)=S`, the IC50 was 35.2 µM in [3] and 12.6 µM in [4]. Moreover, the Activity in [1] is reported as 98%. In [2], this molecule returned an inhibition at 20 µg/mL of 100%.
In the case of `COc1cc(/C=N/NC(N)=S)cc(OC)c1OC`, in data set [1], the Activity turned out to be 78%. Also, in data set [2], the outcome was inactive.
For `CN(C)c1ccc(/C=N/NC(N)=O)cc1` the same measures were 84% and “inactive”.
As for `COc1ccc(/C=N/NC(N)=O)cc1OC`, the Activity in data set [1] worked out at 80%. Further, the inhibition at 20 µg/mL in data set [2] amounted to 32%.
